What was measured:
[1] = tested on: common mosquitoes (Culex pipiens pallens); assay: Biological test 8: mosquito-coil in glass chamber, knock-down; assay type: in vivo; settings: 1.0 g of 0.3 % mosquito-coil, 0.34 m^3 chamber, after 15 minutes
Description: Mosquito-coil containing the present compound in an amount of 0.3 % was prepared according to the formulation example 10 for the present compounds. Ten female common mosquitoes (Culex pipiens pallens) were left in a glass chamber (70 cm × 70 cm × 70 cm : 0.34 m^3) and 1.0 g of 0.3 % mosquito-coil having both ends lit was placed in the glass chamber. After 15 minutes, the rate of knocked-down mosquitoes was examined.

[2] = tested on: webbing clothes moth (Tineola bisselliella); assay: Biological test 12: topical application to webbing clothes moth larvae; assay type: in vivo; settings: 3 µg / insect, after 7 days
Description: Each of the present compounds diluted with acetone to a predetermined concentration was applied to ten middle instar larvae of webbing clothes moth (Tineola bisselliella) at the central part of the back so as to give the active ingredient in a dose of 3 µg / insect. A wool muslin fabric (2 cm × 2 cm in size) was given to the webbing clothes moths as the food. After 7 days, the mortality and the degree of damage of the wool muslin fabric by the moths were examined (two replicate).

[3] = tested on: houseflies (Musca domestica); assay: Biological test 4: treated filter paper with sucrose bait, houseflies low sensitive to pyrethroids; settings: 500 ppm aqueous emulsion, female houseflies low sensitive to pyrethroids, after one day; 1440 min
[4] = tested on: webbing clothes moth (Tineola bisselliella); assay: Biological test 14: persistence of treated filter paper in cardboard box, webbing clothes moth larvae; assay type: in vivo; design: key to degree of damage: -: no damage; +: slight damage; ++: heavy damage; +++: severe damage; settings: 36 mg on filter paper
Description: A filter paper (3.2 cm × 3.2 cm in size) treated with 36 mg of each of the present compounds and two wool muslin fabrics (25 cm × 25 cm in size) were hung down at the upper part of a corrugated cardboard box (29 cm × 29 cm × 29 cm in size). After standing at 25 °C and a humidity of 60 % for 1 week, two tea-strainer balls holding 7 to 10 middle instar larvae of webbing clothes moth (Tineola bisselliella) and one piece of wool muslin cloth (2 cm × 2 cm in size) were hung down at the upper part of the box. The box was closed with a lid. After one week, the box was opened, and the percent moribund and the degree of damage of the wool muslin cloth by the moths were examined. The same tests was repeated 2 weeks, 3 weeks and 5 weeks after the treatment to examine the persistance of the present compound. The degree of damage was represented by "-" in no damage, " + " in slight damage, " ++ " in heavy damage and "+++ " in severe damage.

[5] = tested on: brown planthopper (Nilaparvata lugens); assay: Biological test 2: rice plant stalk dipped in emulsion; assay type: in vivo; settings: 500 ppm aqueous emulsion, larvae, after 6 days
Description: A stalk of a rice plant was dipped for one minute in a 500 ppm aqueous emulsion obtained by diluting each emulsifiable concentrate of the present compounds prepared according to the formulation example 1. The rice plant stalk was air-dried and placed in a polyethylene cup (diameter : 5.5 cm) where filter paper (diameter : 5.5 cm) impregnated with 1 ml of water was put. Approximately 30 larvae of brown planthopper (Nilaparvata lugens) were put in the polyethylene cup. After 6 days, the mortality of the larvae was examined.

[6] = tested on: tobacco cutworm (Spodoptera litura); assay: Biological test 1: artificial bait impregnated with emulsion; settings: 500 ppm emulsion, 4-instar larvae, after 6 days
[7] = tested on: houseflies (Musca domestica); assay: Biological test 9: topical application of acetone solution to houseflies; assay type: in vivo; settings: 5 µg / one housefly, after 24 hours
Description: After 24 hours, the percent moribund was examined (two replicate).

[8] = tested on: webbing clothes moth (Tineola bisselliella); assay: Biological test 13: volatile agent hung in cup with webbing clothes moth larvae; assay type: in vivo; settings: volatile agent (100 µg on filter paper), 25 °C for 1 week; for mortality: 10080 min
Description: A wool muslin fabric (2 cm × 2 cm in size) was placed on the bottom of a polyethylene cup (bottom diameter : 10 cm, opening part diameter : 12.5 cm, height : 9.5 cm, volume : 950 cm^3 ). Ten middle instar larvae of webbing clothes moth (Tineola bisselliella) were put in the cup and each of the volatile agents prepared according to the formulation example 14 was hung from the cap in the interior of the cup. After standing at 25 °C for 1 week, the cup was opened, and the mortality and the degree of damage of the wool muslin fabric by the moths were examined (two replicate).

[9] = tested on: common mosquitoes (Culex pipiens pallens); assay: Biological test 6: mosquito larvae in treated water; assay type: in vivo; settings: 3.5 ppm active ingredient in water, last-instar larvae, after one day; 1440 min
Description: 0.7 ml of aqueous emulsion, obtained by diluting emulsifiable concentrate prepared for each of the present compounds according to the formulation example 1 was added to 100 ml of ion-exchanged water (concentration of active ingredient : 3.5 ppm). Twenty last-instar larvae of common mosquitoes (Culex pipiens pallens) were left in the water. After one day, the mortality of the common mosquitoes was examined.

[10] = tested on: German cockroaches (Blattella germanica); assay: Biological test 5: treated filter paper with sucrose bait, cockroaches low sensitive to pyrethroids; settings: 500 ppm aqueous emulsion, male cockroaches low sensitive to pyrethroids, after six days; 8640 min
[11] = tested on: common mosquitoes (Culex pipiens pallens); assay: Biological test 7: oil solution sprayed in glass chamber, knock-down; assay type: in vivo; settings: 0.7 ml of 0.1 % oil solution sprayed, 0.34 m^3 chamber, after 15 minutes
Description: Ten female common mosquitoes (Culex pipiens pallens) were left in a glass chamber (70 cm × 70 cm × 70 cm : 0.34 m^3). 0.7 ml of 0.1 % oil solution prepared for each of the present compounds according to the formulation example 7 was sprayed with a spray gun at 0.8 atmospheric pressure. After 15 minutes, the rate of knocked-down mosquitoes was examined.

[12] = tested on: southern corn rootworm (Diabrotica undecimpunctata howardi); assay: Biological test 3: treated filter paper with eggs and sprouting corn; settings: 50 ppm aqueous emulsion, after 8 days
[13] = tested on: common mosquitoes (Culex pipiens pallens); assay: Biological test 11: vapour exposure over treated aluminum plate, mosquitoes; assay type: in vivo; settings: 0.64 ml of 0.05 (w/v) % acetone solution, no direct contact, 25 °C for 120 minutes, after 24 hours
Description: (§1) After 0.64 ml of a 0.05 (w/v) % acetone solution of the present compounds was dropped into an aluminum plate (bottom diameter : 7 cm), acetone was air-dried. Ten female common mosquitoes (Culex pipiens pallens) were left in a polyethylene cup (diameter : 9 cm; depth : 4.5 cm) and the cup was sealed with a 16-mesh nylon net to prevent direct contact of the mosquitoes with the compound. The cup was placed upside down on the aluminum plate at 25 °C for 120 minutes. The cup was then removed from the aluminum plate, and water and feed were given to the mosquitoes. After 24 hours, the mortality was examined (two replicate).

[14] = tested on: houseflies (Musca domestica); assay: Biological test 10: vapour exposure over treated aluminum plate, houseflies; assay type: in vivo; settings: 0.64 ml of 0.05 (w/v) % acetone solution, no direct contact, 25 °C for 120 minutes, after 24 hours
Description: as §1, with “houseflies (Musca domestica)” for “common mosquitoes (Culex pipiens pallens)”, “houseflies” for “mosquitoes”, “houseflies.” for “mosquitoes.”, “percent moribund” for “mortality”

rats = settings: male 7-week old rats, into the stomach in corn oil, after 7 days
Description: After subjecting the rats to a twenty-hour fasting, 0.1 ml of the diluted solution per 10g weight was forcibly applied into the stomach of four male 7-week old rats. The rats were given food and water four hours after the application and thereafter regularly fed and watered, and kept in a cage. After 7 days, the mortality was examined for the rats and LD50 was calculated.

Compound | rate of knocked-down mosquitoes [1] [%] | degree of damage of the wool muslin fabric [2] | mortality [2] [%] | mortality [3] [%] | degree of damage ([4]; After 1 week) | percent moribund ([4]; After 1 week) [%] | degree of damage ([4]; After 2 weeks) | percent moribund ([4]; After 2 weeks) [%] | degree of damage ([4]; After 3 weeks) | percent moribund ([4]; After 3 weeks) [%] | degree of damage ([4]; After 5 weeks) | percent moribund ([4]; After 5 weeks) [%] | mortality [5] [%] | mortality [6] [%] | percent moribund [7] [%] | degree of damage of the wool muslin fabric [8] | mortality [8] [%] | mortality [9] [%] | mortality [10] [%] | rate of knocked-down mosquitoes [11] [%] | further results
CCc1ccc(COC(=O)[C@@H]2[C@H](/C=C(\Cl)C(F)(F)F)C2(C)C)o1 (racemic) [present compound (2), 5-ethyl-2-furfuryl (1RS,cis)-3-(Z-2-chloro-3,3,3-trifluoroprop-1-enyl)-2,2-dimethylcyclopropanecarboxylate] | 100 | no damage | 100 | 100 | - | 100 | - | 100 | - | 100 | - | 100 | ≥ 90 | 100 | 100 | no damage | 100 | ≥ 90 | 100 | ≥ 90 | mortality of the hatched larvae and eggs [12]: 100%; mortality [13]: 100%; percent moribund [14]: 100%
CCCc1ccc(COC(=O)[C@@H]2[C@H](/C=C(\Cl)C(F)(F)F)C2(C)C)o1 (racemic) [present compound (3), 5-propyl-2-furfuryl (1RS,cis)-3-(Z-2-chloro-3,3,3-trifluoroprop-1-enyl)-2,2-dimethylcyclopropanecarboxylate] | 100 | no damage | 100 | 100 | - | 100 | - | 100 | - | 100 | - | 100 | ≥ 90 | 100 | 100 | no damage | 100 | ≥ 90 | 100 | ≥ 90 | mortality of the hatched larvae and eggs [12]: 100%; mortality [13]: 100%; percent moribund [14]: 100%
C=CCc1ccc(COC(=O)[C@@H]2[C@H](/C=C(\Cl)C(F)(F)F)C2(C)C)o1 (racemic) [present compound (4), 5-allyl-2-furfuryl (1RS,cis)-3-(Z-2-chloro-3,3,3-trifluoroprop-1-enyl)-2,2-dimethylcyclopropanecarboxylate] | 100 | no damage | 100 | 100 | - | 100 | - | 100 | - | 100 | - | 100 | ≥ 90 | 100 | 100 | no damage | 100 | ≥ 90 | 100 | ≥ 90 | mortality of the hatched larvae and eggs [12]: 100%; mortality [13]: 100%; percent moribund [14]: 100%
CC1(C)C(/C=C(\Cl)C(F)(F)F)C1C(=O)OCc1coc(Cc2ccccc2)c1 (stereo not drawn) [A, reference compound] |  |  |  |  | +++ | 0 | +++ | 0 | +++ | 5 | +++ | 5 |  |  |  |  |  |  |  |  | LD50 (rats): less than 50 mg/kg
C#CCc1ccc(COC(=O)C2C(/C=C(\Cl)C(F)(F)F)C2(C)C)o1 (stereo not drawn) [C, reference compound] |  |  |  |  | +++ | 7 | +++ | 63 | +++ | 20 | +++ | 37 |  |  |  |  |  |  |  |  | LD50 (rats): less than 100 mg/kg
